Results from patent publication US20050171195A1, “P2X7 antagonists for treating neuropathic pain” (priority 2003, published 2005).

melting point [°C]	Compound
58 to 60	Cc1ncccc1NC(=NC#N)NC(NC(=O)Cc1ccc(F)c(F)c1)C(C)(C)C (stereo not shown) [Example 1, N-[1-({(cyanoimino)[(2-methyl-3-pyridinyl)amino]methyl}amino)-2,2-dimethylpropyl]-2-(3,4-difluorophenyl)acetamide]
180 to 181	Cc1ncccc1NC(=NC#N)NC(NC(=O)Cc1ccc(Cl)cc1)C(C)(C)C (stereo not shown) [Example 2, 2-(4-chlorophenyl)-N-[1-({(cyanoimino)[(2-methyl-3-pyridinyl)amino]methyl}amino)-2,2-dimethylpropyl]acetamide]
65 to 68	COc1ccc(CCCC(=O)NC(NC(=NC#N)Nc2cccnc2C)C(C)(C)C)cc1 (stereo not shown) [Example 3, N-[1-({(cyanoimino)[(2-methyl-3-pyridinyl)amino]methyl}amino)-2,2-dimethylpropyl]-4-(4-methoxyphenyl)butanamide]
75 to 77	Cc1ccc(CC(=O)NC(NC(=NC#N)Nc2cccnc2C)C(C)(C)C)cc1F (stereo not shown) [Example 4, N-[1-({(cyanoimino)[(2-methyl-3-pyridinyl)amino]methyl}amino)-2,2-dimethylpropyl]-2-(3-fluoro-4-methylphenyl)acetamide]
133 to 134	Cc1ncccc1NC(=NC#N)NC(NC(=O)CCCCc1ccccc1)C(C)(C)C (stereo not shown) [Example 5, N-[1-({(cyanoimino)[(2-methyl-3-pyridinyl)amino]methyl}amino)-2,2-dimethylpropyl]-5-phenylpentanamide]
166 to 167	Cc1ncccc1NC(=NC#N)NC(NC(=O)Cc1ccc(F)cc1)C(C)(C)C (stereo not shown) [Example 6, N-[1-({(cyanoimino)[(2-methyl-3-pyridinyl)amino]methyl}amino)-2,2-dimethylpropyl]-2-(4-fluorophenyl)acetamide]
66 to 68	Cc1ncccc1NC(=NC#N)NC(NC(=O)CCCc1cccs1)C(C)(C)C (stereo not shown) [Example 7, N-[1-({(cyanoimino)[(2-methyl-3-pyridinyl)amino]methyl}amino)-2,2-dimethylpropyl]-4-(2-thienyl)butanamide]
172 to 173	CSc1ccc(CC(=O)NC(NC(=NC#N)Nc2cccnc2C)C(C)(C)C)cc1 (stereo not shown) [Example 8, N-[1-({(cyanoimino)[(2-methyl-3-pyridinyl)amino]methyl}amino)-2,2-dimethylpropyl]-2-[4-(methylthio)phenyl]acetamide]
112 to 114	CCc1ncccc1NC(=NC#N)NC(NC(=O)Cc1ccc(Cl)cc1)C(C)(C)C (stereo not shown) [Example 9, 2-(4-chlorophenyl)-N-[1-({(cyanoimino)[(2-ethyl-3-pyridinyl)amino]methyl}amino)-2,2-dimethylpropyl]acetamide]
174	COc1ccc(CC(=O)NC(NC(=NC#N)Nc2ccccc2C)C(C)(C)C)cc1 (stereo not shown) [Example 14, N-[1-({(cyanoimino)[(2-methylphenyl)amino]methyl}amino)-2,2-dimethylpropyl]-2-(4-methoxyphenyl)acetamide]
152 to 153	Cc1ccccc1NC(=NC#N)NC(NC(=O)Cc1ccc2c(c1)OCO2)C(C)(C)C (stereo not shown) [Example 15, 2-(1,3-benzodioxol-5-yl)-N-[1-({(cyanoimino)[(2-methylphenyl)amino]methyl}amino)-2,2-dimethylpropyl]acetamide]
151 to 152	CSc1ccc(CC(=O)NC(NC(=NC#N)Nc2ccccc2C)C(C)(C)C)cc1 (stereo not shown) [Example 16, N-[1-({(cyanoimino)[(2-methylphenyl)amino]methyl}amino)-2,2-dimethylpropyl]-2-[4-(methylthio)phenyl]acetamide]
181 to 182	Cc1ccccc1NC(=NC#N)NC(NC(=O)Cc1ccc(Cl)cc1)C(C)(C)C (stereo not shown) [Example 17, 2-(4-chlorophenyl)-N-[1-({(cyanoimino)[(2-methylphenyl)amino]methyl}amino)-2,2-dimethylpropyl]acetamide]
153 to 154	Cc1ccccc1NC(=NC#N)NC(NC(=O)CCCc1ccccc1)C(C)(C)C (stereo not shown) [Example 18, N-[1-({(cyanoimino)[(2-methylphenyl)amino]methyl}amino)-2,2-dimethylpropyl]-4-phenylbutanamide]
190 to 191	COc1ccc(CC(=O)NC(NC(=NC#N)Nc2cc(F)ccc2F)C(C)(C)C)cc1OC (stereo not shown) [Example 19, N-[1-({(cyanoimino)[(2,5-difluorophenyl)amino]methyl}amino)-2,2-dimethylpropyl]-2-(3,4-dimethoxyphenyl)acetamide]
135 to 136	COc1ccc(CC(=O)NC(NC(=NC#N)Nc2ccccc2Cl)C(C)(C)C)cc1OC (stereo not shown) [Example 20, N-(1-{[[(2-chlorophenyl)amino](cyanoimino)methyl]amino}-2,2-dimethylpropyl)-2-(3,4-dimethoxyphenyl)acetamide]
93 to 94	COc1ccc(CC(=O)NC(NC(=NC#N)Nc2cc(C)ccc2C)C(C)(C)C)cc1OC (stereo not shown) [Example 21, N-[1-({(cyanoimino)[(2,5-dimethylphenyl)amino]methyl}amino)-2,2-dimethylpropyl]-2-(3,4-dimethoxyphenyl)acetamide]

melting point [°C]	Compound
170 to 171	COc1ccc(CC(=O)NC(NC(=NC#N)Nc2c(F)cc(F)cc2F)C(C)(C)C)cc1OC (stereo not shown) [Example 22, N-[1-({(cyanoimino)[(2,4,6-trifluorophenyl)amino]methyl}amino)-2,2-dimethylpropyl]-2-(3,4-dimethoxyphenyl)acetamide]
187 to 188	COc1ccc(CC(=O)NC(NC(=NC#N)Nc2cc(Cl)ccc2F)C(C)(C)C)cc1OC (stereo not shown) [Example 23, N-(1-{[[(5-chloro-2-fluorophenyl)amino](cyanoimino)methyl]amino}-2,2-dimethylpropyl)-2-(3,4-dimethoxyphenyl)acetamide]
146 to 147	COc1ccc(CC(=O)NC(NC(=NC#N)Nc2cccnc2OC)C(C)(C)C)cc1OC (stereo not shown) [Example 24, N-[1-({(cyanoimino)[(2-methoxy-3-pyridinyl)amino]methyl}amino)-2,2-dimethylpropyl]-2-(3,4-dimethoxyphenyl)acetamide]
174 to 175	CC(C)(C)C(NC(=O)Cc1ccc(Cl)cc1)NC(=NC#N)Nc1cccnc1Cl (stereo not shown) [Example 26, 2-(4-chlorophenyl)-N-(1-{[[(2-chloro-3-pyridinyl)amino](cyanoimino)methyl]amino}-2,2-dimethylpropyl)acetamide]
162 to 163	COc1ccc(NC(=NC#N)NC(NC(=O)Cc2ccc(OC)c(OC)c2)C(C)(C)C)c(OC)n1 (stereo not shown) [Example 27, N-[1-({(cyanoimino)[(2,6-dimethoxy-3-pyridinyl)amino]methyl}amino)-2,2-dimethylpropyl]-2-(3,4-dimethoxyphenyl)acetamide]
188 to 189	CSc1ccc(CC(=O)NC(NC(=NC#N)Nc2cccc3ncccc23)C(C)(C)C)cc1 (stereo not shown) [Example 31, N-(1-{[(cyanoimino)(5-quinolinylamino)methyl]amino}-2,2-dimethylpropyl)-2-[4-(methylthio)phenyl]acetamide]
195 to 196	CC(C)(C)C(NC(=O)Cc1ccc(Cl)cc1)NC(=NC#N)Nc1cccc2ncccc12 (stereo not shown) [Example 32, 2-(4-chlorophenyl)-N-(1-{[(cyanoimino)(5-quinolinylamino)methyl]amino}-2,2-dimethylpropyl)acetamide]
200 to 201	CC(C)(C)C(NC(=O)Cc1ccc2ccccc2c1)NC(=NC#N)Nc1cccc2ncccc12 (stereo not shown) [Example 36, N-(1-{[(cyanoimino)(5-quinolinylamino)methyl]amino}-2,2-dimethylpropyl)-2-(2-naphthyl)acetamide]
189 to 190	CCSc1ccc(CC(=O)NC(NC(=NC#N)Nc2cccc3ncccc23)C(C)(C)C)cc1 (stereo not shown) [Example 37, N-(1-{[(cyanoimino)(5-quinolinylamino)methyl]amino}-2,2-dimethylpropyl)-2-[4-(ethylthio)phenyl]acetamide]
191 to 192	CC(C)(C)C(NC(=O)Cc1ccc2c(c1)OCCO2)NC(=NC#N)Nc1cccc2ncccc12 (stereo not shown) [Example 38, N-(1-{[(cyanoimino)(5-quinolinylamino)methyl]amino}-2,2-dimethylpropyl)-2-(2,3-dihydro-1,4-benzodioxin-6-yl)acetamide]
147 to 148	CC(C)(C)C(NC(=O)Cc1ccc2cccnc2c1)NC(=NC#N)Nc1cccc2ncccc12 (stereo not shown) [Example 39, N-(1-{[(cyanoimino)(5-quinolinylamino)methyl]amino}-2,2-dimethylpropyl)-2-(7-quinolinyl)acetamide]
150 to 151	CC(C)(C)C(NC(=O)Cc1ccc2ncccc2c1)NC(=NC#N)Nc1cccc2ncccc12 (stereo not shown) [Example 40, N-(1-{[(cyanoimino)(5-quinolinylamino)methyl]amino}-2,2-dimethylpropyl)-2-(6-quinolinyl)acetamide]
194.5 to 195.5	CC(C)(C)C(NC(=O)Cc1ccc(C#N)cc1)NC(=NC#N)Nc1cccc2ncccc12 (stereo not shown) [Example 41, N-(1-{[(cyanoimino)(5-quinolinylamino)methyl]amino}-2,2-dimethylpropyl)-2-(4-cyanophenyl)acetamide]
181 to 182	CC(C)(C)C(NC(=O)CCCc1cccnc1)NC(=NC#N)Nc1cccc2ncccc12 (stereo not shown) [Example 42, N-(1-{[(cyanoimino)(5-quinolinylamino)methyl]amino}-2,2-dimethylpropyl)-4-(3-pyridinyl)butanamide]
114 to 117	CN1CCCc2c(NC(=NC#N)NC(NC(=O)Cc3ccc(Cl)cc3)C(C)(C)C)cccc21 (stereo not shown) [Example 43, 2-(4-chlorophenyl)-N-[1-({(cyanoimino)[(1-methyl-1,2,3,4-tetrahydro-5-quinolinyl)amino]methyl}amino)-2,2-dimethylpropyl]acetamide]
198 to 199	Cc1ccc2c(NC(=NC#N)NC(NC(=O)Cc3ccc(Cl)cc3)C(C)(C)C)cccc2n1 (stereo not shown) [Example 44, 2-(4-chlorophenyl)-N-[1-({(cyanoimino)[(2-methyl-5-quinolinyl)amino]methyl}amino)-2,2-dimethylpropyl]acetamide]
135 to 137	CC(C)(C)C(NC(=O)Cc1ccc(Cl)cc1)NC(=NC#N)Nc1cccc2cnsc12 (stereo not shown) [Example 45, N-(1-{[(1,2-benzisothiazol-7-ylamino)(cyanoimino)methyl]amino}-2,2-dimethylpropyl)-2-(4-chlorophenyl)acetamide]
